Measurements reported in patent publication US12595230B2, “Substituted 6,7-dihydro-5H-benzo[7]annulene compounds and their derivatives, processes for their preparation and therapeutic uses thereof” (Sanofi, priority 2020, dated 2026).

Target: T1, ERα (Homo sapiens, UniProt P03372)
T1 construct: host or cells: MCF7
T1 sequence (P03372 1-595): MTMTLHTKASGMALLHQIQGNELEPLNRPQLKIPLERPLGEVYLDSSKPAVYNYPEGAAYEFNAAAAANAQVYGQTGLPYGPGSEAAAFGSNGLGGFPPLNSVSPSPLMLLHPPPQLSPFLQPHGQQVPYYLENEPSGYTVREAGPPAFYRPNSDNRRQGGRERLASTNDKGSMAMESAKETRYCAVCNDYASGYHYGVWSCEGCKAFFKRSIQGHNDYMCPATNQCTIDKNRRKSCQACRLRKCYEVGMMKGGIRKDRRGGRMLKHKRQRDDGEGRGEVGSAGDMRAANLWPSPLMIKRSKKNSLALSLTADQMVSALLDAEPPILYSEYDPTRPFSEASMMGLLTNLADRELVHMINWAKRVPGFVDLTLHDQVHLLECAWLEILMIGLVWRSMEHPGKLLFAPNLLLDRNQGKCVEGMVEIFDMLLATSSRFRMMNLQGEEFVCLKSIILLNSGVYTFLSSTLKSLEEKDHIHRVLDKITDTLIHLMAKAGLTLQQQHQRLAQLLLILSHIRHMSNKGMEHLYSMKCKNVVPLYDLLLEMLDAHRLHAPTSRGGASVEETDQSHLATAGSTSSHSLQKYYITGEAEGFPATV
Assay: Estrogen receptor degradation activity: breast cancer cell ERα in cell western assay (MCF7 cells)
Type: cell-based
Settings: for % Degradation At 0.3 μM: 4 hours, relative to fulvestrant 0.1 μM positive control; for DC50 / IC50: 4 hours post compound addition, concentration which degrades 50% of the estrogen receptor; for DC50: read-out: Degradation IC50
Outline: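 Compounds were applied to MCF7 cells in stripped-serum, phenol red-free medium for 4 h at final 0.3–0.0000018 μM, with fulvestrant (0.1 μM) as control. Value: IC50 (nM) for 50% ERα degradation.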

SMILES	% Degradation At 0.3 μM	DC50	IC50
O=C(O)c1ccc2c(c1)CCCC(C1CCOCC1)=C2c1ccc(CC2CN(CCCF)C2)cc1 [Example 38, 9-(4-((1-(3-fluoropropyl)azetidin-3-yl)methyl)phenyl)-8-(tetrahydro-2H-pyran-4-yl)-6,7-dihydro-5H-benzo[7]annulene-3-carboxylic acid]	83%	7 nM	
O=C(O)c1ccc2c(c1)CCCC(c1ccc(Cl)cc1Cl)=C2c1ccc(C(=O)C2CN(CCCF)C2)cc1 [Example 39, 8-(2,4-Dichlorophenyl)-9-(4-(1-(3-fluoropropyl)azetidine-3-carbonyl)phenyl)-6,7-dihydro-5H-benzo[7]annulene-3-carboxylic Acid]	92%	1.2 nM	
O=C(O)c1ccc2c(c1)CCCC(c1ccc(Cl)cc1Cl)=C2c1ccc(C(F)(F)C2CN(CCCF)C2)cc1 [Example 40, 8-(2,4-dichlorophenyl)-9-(4-(difluoro(1-(3-fluoropropyl)azetidin-3-yl)methyl)phenyl)-6,7-dihydro-5H-benzo[7]annulene-3-carboxylic acid]	91%	0.4 nM	
Cl.O=C(O)c1ccc2c(c1)CCCC(c1ccc(Cl)cc1Cl)=C2c1ccc(CC2CN(CCCF)C2)cc1F [Example 47, 8-(2,4-dichlorophenyl)-9-(2-fluoro-4-((1-(3-fluoropropyl)azetidin-3-yl)methyl)phenyl)-6,7-dihydro-5H-benzo[7]annulene-3-carboxylic acid]	93%	0.4 nM	
O=C(O)c1ccc2c(c1)CCCC(C1=CC3(C1)CC(F)(F)C3)=C2c1ccc(CC2CN(CCCF)C2)cc1 [Example 50, 8-(6,6-difluorospiro[3.3]hept-1-en-2-yl)-9-(4-((1-(3-fluoropropyl)azetidin-3-yl)methyl)phenyl)-6,7-dihydro-5H-benzo[7]annulene-3-carboxylic acid]	88%	10.5 nM	
O=C(O)c1ccc2c(c1)CCCC(C1CC3(C1)CC(F)(F)C3)=C2c1ccc(CC2CN(CCCF)C2)cc1 [Example 51, 8-(6,6-difluorospiro[3.3]heptan-2-yl)-9-(4-((1-(3-fluoropropyl)azetidin-3-yl)methyl)phenyl)-6,7-dihydro-5H-benzo[7]annulene-3-carboxylic acid]	89%	0.7 nM	
Cl.O=C(O)c1ccc2c(c1)SCCC(c1ccc(Cl)cc1Cl)=C2c1ccc(CC2CN(CCCF)C2)cc1 [Example 52, 4-(2,4-dichlorophenyl)-5-(4-((1-(3-fluoropropyl)azetidin-3-yl)methyl)phenyl)-2,3-dihydrobenzo[b]thiepine-8-carboxylic acid]	54%	255 nM	
Cl.O=C(O)c1ccc2c(c1)CCCC(c1ccc(F)c3c1CCC3)=C2c1ccc(CC2CN(CCCF)C2)cc1 [Example 55, 8-(7-fluoro-2,3-dihydro-1H-inden-4-yl)-9-(4-((1-(3-fluoropropyl)azetidin-3-yl)methyl)phenyl)-6,7-dihydro-5H-benzo[7]annulene-3-carboxylic acid hydrochloride]	93%	0.5 nM	
Cl.O=C(O)c1ccc2c(c1)CCCC(c1ccc(Cl)c(Cl)c1)=C2c1ccc(CC2CN(CCCF)C2)cc1 [Example 207, 8-(3,4-dichlorophenyl)-9-(4-((1-(3-fluoropropyl)azetidin-3-yl)methyl)phenyl)-6,7-dihydro-5H-benzo[7]annulene-3-carboxylic acid hydrochloride]	92%	1.1 nM	
Cc1cc(C2=C(c3ccc(CC4CN(CCCF)C4)cc3)c3ccc(C(=O)O)cc3CCC2)cn(C)c1=O [Example 209, 8-(1,5-dimethyl-6-oxo-1,6-dihydropyridin-3-yl)-9-(4-((1-(3-fluoropropyl)azetidin-3-yl)methyl)phenyl)-6,7-dihydro-5H-benzo[7]annulene-3-carboxylic acid]	100%	88.7 nM	
Cc1ccc(C2=C(c3ccc(CC4CN(CCCF)C4)cc3)c3ccc(C(=O)O)cc3CCC2)c(F)c1F.Cl [Example 210, 8-(2,3-difluoro-4-methylphenyl)-9-(4-((1-(3-fluoropropyl)azetidin-3-yl)methyl)phenyl)-6,7-dihydro-5H-benzo[7]annulene-3-carboxylic acid hydrochloride]	88%	0.3 nM	
Cc1c(Cl)cccc1C1=C(c2ccc(CC3CN(CCCF)C3)cc2)c2ccc(C(=O)O)cc2CCC1.Cl [Example 212, 8-(3-chloro-2-methylphenyl)-9-(4-((1-(3-fluoropropyl)azetidin-3-yl)methyl)phenyl)-6,7-dihydro-5H-benzo[7]annulene-3-carboxylic acid hydrochloride]	87%		0.1 nM
Cc1ccc(C2=C(c3ccc(CC4CN(CCCF)C4)cc3)c3ccc(C(=O)O)cc3CCC2)c(C(F)(F)F)c1.Cl [Example 213, 9-(4-((1-(3-fluoropropyl)azetidin-3-yl)methyl)phenyl)-8-(4-methyl-2-(trifluoromethyl)phenyl)-6,7-dihydro-5H-benzo[7]annulene-3-carboxylic acid hydrochloride]	94%	0.2 nM	

Other lines, results leading:

% Degradation At 0.3 μM	DC50	IC50	SMILES
87%	0.4 nM		CC(C)CC1=C(c2ccc(CC3CN(CCCF)C3)cc2)c2ccc(C(=O)O)cc2CCC1 [Example 37, 9-(4-((1-(3-fluoropropyl)azetidin-3-yl)methyl)phenyl)-8-isobutyl-6,7-dihydro-5H-benzo[7]annulene-3-carboxylic acid]
86%	0.3 nM		O=C(O)c1ccc2c(c1)CCCC(c1ccc(F)c(F)c1)=C2c1ccc(CC2CN(CCCF)C2)cc1 [Example 45, 8-(3,4-difluorophenyl)-9-(4-((1-(3-fluoropropyl)azetidin-3-yl)methyl)phenyl)-6,7-dihydro-5H-benzo[7]annulene-3-carboxylic acid]
88%	0.6 nM		O=C(O)c1ccc2c(c1)CCCC(c1ccc(Cl)cc1Cl)=C2c1ccc(CC2(F)CN(CCCF)C2)cc1 [Example 46, 8-(2,4-dichlorophenyl)-9-(4-((3-fluoro-1-(3-fluoropropyl)azetidin-3-yl)methyl)phenyl)-6,7-dihydro-5H-benzo[7]annulene-3-carboxylic acid]
86%	0.5 nM		Cc1cc(C2=C(c3ccc(Cl)cc3Cl)CCCc3cc(C(=O)O)ccc32)ccc1CC1CN(CCCF)C1.Cl [Example 48, 8-(2,4-dichlorophenyl)-9-(4-((1-(3-fluoropropyl)azetidin-3-yl)methyl)-3-methylphenyl)-6,7-dihydro-5H-benzo[7]annulene-3-carboxylic acid]
82%	3.4 nM		Cl.O=C(O)c1ccc2c(c1)OCCC(c1ccccc1Cl)=C2c1ccc(CC2CN(CCCF)C2)cc1 [Example 49, 4-(2-chlorophenyl)-5-(4-((1-(3-fluoropropyl)azetidin-3-yl)methyl)phenyl)-2,3-dihydrobenzo[b]oxepine-8-carboxylic acid]
91%	0.4 nM		O=C(O)c1ccc2c(c1)CCCC(c1cccc3c1CC3)=C2c1ccc(CC2CN(CCCF)C2)cc1 [Example 53, 8-(bicyclo[4.2.0]octa-1(6),2,4-trien-2-yl)-9-(4-((1-(3-fluoropropyl)azetidin-3-yl)methyl)phenyl)-6,7-dihydro-5H-benzo[7]annulene-3-carboxylic acid]
94%	0.6 nM		Cl.O=C(O)c1ccc2c(c1)CCCC(c1cccc3c1CCC3(F)F)=C2c1ccc(CC2CN(CCCF)C2)cc1 [Example 54, 8-(1,1-difluoro-2,3-dihydro-1H-inden-4-yl)-9-(4-((1-(3-fluoropropyl)azetidin-3-yl)methyl)phenyl)-6,7-dihydro-5H-benzo[7]annulene-3-carboxylic acid hydrochloride]
86%	0.4 nM		O=C(O)c1cc2c(cc1F)C(c1ccc(CC3CN(CCCF)C3)cc1)=C(c1ccc(Cl)cc1Cl)CCC2 [Example 206, 8-(2,4-dichlorophenyl)-2-fluoro-9-(4-((1-(3-fluoropropyl)azetidin-3-yl)methyl)phenyl)-6,7-dihydro-5H-benzo[7]annulene-3-carboxylic acid]
95%	0.2 nM		Cl.[2H]C([2H])(CCF)N1CC(Cc2ccc(C3=C(c4ccc(Cl)cc4Cl)CCCc4cc(C(=O)O)ccc43)cc2)C1 [Example 208, 8-(2,4-dichlorophenyl)-9-(4-((1-(3-fluoropropyl-1,1-d2)azetidin-3-yl)methyl)phenyl)-6,7-dihydro-5H-benzo[7]annulene-3-carboxylic acid hydrochloride]
96%		0.1 nM	Cl.O=C(O)c1ccc2c(c1)CCCC(c1ccc(Cl)c(F)c1Cl)=C2c1ccc(CC2CN(CCCF)C2)cc1 [Example 211, 8-(2,4-dichloro-3-fluorophenyl)-9-(4-((1-(3-fluoropropyl)azetidin-3-yl)methyl)phenyl)-6,7-dihydro-5H-benzo[7]annulene-3-carboxylic acid hydrochloride]
